# Data reported in patent US8541442B2, “Indole derivatives as anticancer agents” (Janssen Pharmaceutica N.V., priority 2009, dated 2013).
# Key:
# [1] = system: non-small cell lung cancer cell line H1299; test: Alamar Blue cell proliferation assay, H1299; format: cell-based; conditions: for H1299 cell proliferation inhibition pIC50: H1299 cells; for IC50: Homo sapiens, NCI-H1299, H1299 cells, read-out: H1299 cell proliferation inhibition pIC50 (converted)
# Description: (§1) For experiments in 384 wells plates the cells were seeded at a density of 5×10^3 cells/ml in Falcon 384-well culture plates (Life Technologies, Merelbeke, Belgium), black with clear bottom, in 45 μl culture medium. Cells were allowed to adhere to plastic for 24 hr. The tested compound was pre-diluted (1/50 in culture medium) and 5 μl pre-diluted compound was added to the wells. Following 4-day incubation, 10 μl of the Alamar Blue solution was added to each well and the cells were further incubated for 5 hrs (A2780) at 37° C. The fluorescence intensity was measured for each well with a Fluorescence plate reader (Fluorskan, Labsystems, 540 nm excitation and 590 nm emission)
# (§2) The antiproliferative activity was calculated as percentage of remaining viable cells in treated versus control (untreated cells) conditions. Within an experiment, the result for each experimental condition is the mean of 3 replicate wells. When appropriate, the experiments were repeated to establish full concentration-response curves. When appropriate, IC50-values (concentration of the drug, needed to reduce cell growth to 50% of the control) were computed using probit analysis for graded data (Finney, D. J., Probit Analyses, 2nd Ed. Chapter 10, Graded Responses, Cambridge University Press, Cambridge 1962). Herein the effects of test compounds are expressed as pIC50 (the negative log value of the IC50-value (M)) (see Table 5A).
# (§3) Compounds were also tested according to the above protocol but using other cell lines: colorectal cancer cell line HCT116, non-small cell lung cancer cell line H1299, human prostate cancer cell line DU145.
# [2] = system: human prostate cancer cell line DU145; test: Alamar Blue cell proliferation assay, DU145; format: cell-based; conditions: for DU145 cell proliferation inhibition pIC50: DU145 cells; for IC50: Homo sapiens, DU-145, DU145 cells, read-out: DU145 cell proliferation inhibition pIC50 (converted)
# Description: as §1, §2, §3
# [3] = system: colorectal cancer cell line HCT116; test: Alamar Blue cell proliferation assay, HCT116; format: cell-based; conditions: for HCT116 cell proliferation inhibition pIC50: HCT116 cells; for IC50: Homo sapiens, HCT-116, HCT116 cells, read-out: HCT116 cell proliferation inhibition pIC50 (converted)
# Description: as §1, §2, §3
# [4] = system: A2780 ovarian cancer cells; test: Alamar Blue cell proliferation assay, A2780; format: cell-based, human; conditions: 4-day incubation; for IC50: Homo sapiens, A2780, 96 h, read-out: A2780 cell proliferation inhibition pIC50 (converted)
# Description: The human A2780 ovarian cancer cells were a kind gift from Dr. T. C. Hamilton (Fox Chase Cancer Centre, Pennsylvania, U.S.A.). The cells were cultured in RPMI 1640 medium supplemented with 2 mM L-Glutamine, 50 μg/ml gentamicin and 10% fetal calf serum.
# Potassium Phosphate Buffer 0.1 M (PPB) was made as follows: 2.72 gram KH2PO4 and 13.86 gram K2HPO4 were dissolved in 500 ml milli-Q H2O, the pH was adjusted to pH 7.4 and the volume was brought to 1 liter with milli-Q H2O; the buffer was filter sterilised and stored at room temperature. Resazurin stock solution (PPB-A) was prepared fresh by dissolving 45 mg resazurin in 15 ml PBS. 30 mM potassium ferricyanide (PPB-B) was prepared by dissolving 0.987 gram potassium ferricyanide in 100 ml PPB. 30 mM potassium ferrocyanide (PPB-C) was prepared by dissolving 1.266 gram potassium ferrocyanide in 100 ml PPB.
# Mixture of PPB-A, PPB-B and PPB-C was prepared by mixing equal volumes of the respective solutions. Resazurin work solution (herein termed “Alamar Blue” solution) was prepared by diluting said mixture 20×(vol/vol) in PPB and filter sterilising; the Alamar Blue solution could be kept at 4° C. for a maximum of 2 weeks.
# as §1, §2
# [5] = system: p53 in A2780 cells; test: p53 ELISA (preservation of p53 in A2780 cells); format: cell-based, human; conditions: 16 hours treatment; for minimal effective concentration: Homo sapiens, A2780, 16 h, read-out: p53-elisa LAD (lowest dose giving at least 140% of the value for p53 present in the control)
# Description: The capacity of the present compounds to preserve p53 in A2780 cells was measured with the p53 enzyme linked immunosorbent assay. The p53 assay is a “sandwich” enzyme immunoassay employing two polyclonal antibodies. A polyclonal antibody, specific for the p53 protein, has been immobilized onto the surface of the plastic wells. Any p53 present in the sample to be assayed will bind to the capture antibody. The biotinylated detector polyclonal antibody also recognizes p53 protein, and will bind to any p53, which has been retained by the capture antibody. The detector antibody, in turn, is bond by horseradish peroxidase-conjugated streptavidin. The horseradish peroxidase catalyses the conversion of the chromogenic substrate o-phenylene diamine, the intensity of which is proportional to the amount of p53 protein bond to the plate. The colored reaction product is quantified using a spectrophotometer. Quantitation is achieved by the construction of a standard curve using known concentrations of purified recombinant HIS tagged p53 protein (see example C.1.).
# A2780 cells (ATCC) were cultivated in RPMI 1640 supplemented with 10% fetal calf serum (FCS), 2 mM L-glutamine and gentamycin at 37° C. in a humidified incubator with 5% CO2.
# A2780 cells were seeded at 20.000 cells per well in a 96 well plate, cultured for 24 hours and treated with compound for 16 hours at 37° C. in a humidified incubator. After incubation, the cells were washed once with phosphate-buffered saline and 30 μl, per well, low salt RIPA buffer (20 mM tris, pH7.0, 0.5 mM EDTA, 1% Nonidet P40, 0.5% DOC, 0.05% SDS, 1 mM PMSF, 1 μg/ml aprotinin and 0.5 μ/ml leupeptin) was added. Plates were placed on ice for 30 minutes to complete the lysis. p53 protein was detected in de lysates by using the sandwich ELISA, described below.
# High binding polystyrene EIA/RIA 96 well plates (Costar 9018) were coated with the capture antibody pAb1801 (Abcam ab28-100) at a concentration of 1 μg/ml in coating buffer (0.1 M NaHCO3 pH8.2), 50 μl per well. The antibody was allowed to adhere overnight at 4° C. Coated plates were washed once with phosphate-buffered saline (PBS)/0.05% Tween 20 and 300 μl of blocking buffer (PBS, 1% bovine serum albumins (BSA)) was added, for an incubation period of 2 hours at room temperature. Dilutions of purified recombinant HIS tagged p53 protein, ranging from 3-200 ng/ml, were made in blocking buffer and used as standards.
# Plates were washed twice with PBS/0.05% Tween 20 and blocking buffer or standards were added at 80 μl/well. To the standards, 20 μl of lysis buffer was added. The samples were added to the other wells at 20 μl lysate/well. After an overnight incubation at 4° C., plates were washed twice with PBS/0.05% Tween 20. Aliquots of 100 μl secondary polyclonal antibody p53(FL-393) (Tebubio, sc-6243) at a concentration of 1 μg/ml in blocking buffer were added to each well and allowed to adhere for 2 hours at room temperature. Plates were washed three times with PBS/0.05% Tween 20. Detection antibody anti-rabbit HRP (sc-2004, Tebubio) at 0.04 μg/ml in PBS/1% BSA was added and incubated for 1 hour at room temperature. Plates were washed three times with PBS/0.05% Tween 20 and 100 μl of substrate buffer was added (substrate buffer was prepared shortly before use by adding 1 tablet of 10 mg o-phenylene diamine (OPD) from Sigma and 125 μl 3% H2O2 to 25 ml OPD buffer: 35 mM citric acid, 66 mM Na2HPO4, pH5.6). After 5 to 10 minutes, colour reaction was stopped by adding 50 μl stop buffer (1 M H2SO4) per well. The absorbance at dual wavelengths of 490/655 nm was measured using a Biorad micro plate reader and the results were then analyzed.
# For each experiment, controls (containing no drug) and a blank incubation (containing no cells or drugs) were run in parallel. The blank value was subtracted from all control and sample values. For each sample, the value of p53 (in absorbance units) was expressed as the percentage of the value for p53 present in the control. […]
Structure (SMILES),H1299 cell proliferation inhibition pIC50 [1],DU145 cell proliferation inhibition pIC50 [2],HCT116 cell proliferation inhibition pIC50 [3],A2780 cell proliferation inhibition pIC50 [4],p53-elisa LAD (lowest dose giving at least 140% of the value for p53 present in the control) [5] [µM],IC50 [1] [nM],IC50 [2] [nM],IC50 [3] [nM],IC50 [4] [nM],minimal effective concentration [5] [µM]
"CC(C)(O)c1cccc2c(CCNc3ccc(Nc4ccnc5c4CCC5(C)O)cc3)c[nH]c12 (single isomer, unassigned) [Compound 31]",5.84,6.04,6.94,6.84,0.10,,,,,
Cc1cc(Nc2ccnc3c2CCC3(C)O)ccc1NCCc1c[nH]c2c(C(C)(C)O)cccc12 (centres unmarked) [Compound 1],,,,,,871,1200,151,115,0.1
Cc1cc(Nc2ccnc3c2CCC3=O)ccc1NCCc1c[nH]c2c(C(C)O)cccc12 (centres unmarked) [Compound 4],,,,,,3720,5130,1000,182,0.1
Cc1cc(Nc2ccnc(CO)c2)ccc1NCCc1c[nH]c2c(C(C)O)cccc12 (centres unmarked) [Compound 5],,,,,,5890,2750,347,52.5,0.1
C=C(C)c1cccc2c(CCNc3ccc(Nc4ccnc5c4CCC5OC)cc3)c[nH]c12 (centres unmarked) [Compound 7],,,,,,407,251,100,110,0.3
Cc1cc(Nc2ccnc3c2CCC3O)ccc1NCCc1c[nH]c2c(CCC(C)O)cccc12 (centres unmarked) [Compound 9],,,,,,6760,5500,955,141,1
Cc1cc(Nc2ccnc3c2CCC3(C)O)ccc1NCCc1c[nH]c2c(C(C)O)cccc12 (centres unmarked) [Compound 10],5.68,5.65,6.47,6.70,1.0,,,,,
COc1cc(Nc2ccnc3c2CCC3O)ccc1NCCc1c[nH]c2c(C(C)(C)O)cccc12 (centres unmarked) [Compound 11],5.81,6.21,6.67,6.55,0.30,,,,,
COC1CCc2c(Nc3ccc(NCCc4c[nH]c5c(C(C)O)cccc45)c(C)c3)ccnc21 (centres unmarked) [Compound 16],6.73,5.98,6.68,6.87,0.30,,,,,
Cc1cc(Nc2ccnc3c2CCC3O)ccc1NCCc1c[nH]c2c(C(C)(C)O)cccc12 (centres unmarked) [Compound 18],6.38,6.40,,7.47,0.03,,,53.7,,
